Measurements from ChEMBL document CHEMBL1125069, “Synthesis and antitumor activity of 2-beta-D-ribofuranosyloxazole-4-carboxamide (oxazofurin)” (J Med Chem, 1990).

Experiments:
B16 [1] = assay: In vitro inhibitory activity against B16 murine melanoma cells; assay type: functional, cell-based; conditions: Mus musculus
HL-60 [2] = assay: In vitro inhibitory activity against HL-60 human promyelocytic leukemia cells until a maximum concentration of 4*(10e-3) M; a = inactive until a maximum tested concentration of 4*(10e-3) M; assay type: functional, cell-based
L1210 [3] = assay: In vitro inhibitory activity against L1210 murine lymphocytic leukemia cells; a = inactive until a maximum tested concentration of 4*(10e-3) M; assay type: functional, cell-based, Mus musculus
P388 [4] = assay: In vitro inhibitory activity against P388 murine lymphocytic leukemia cells; a = inactive until a maximum tested concentration of 4*(10e-3) M; assay type: functional, cell-based, Mus musculus
B16 [5] = assay: In vitro inhibitory activity against B16 murine melanoma cells; b = inactive until a maximum tested concentration of […]; assay type: functional, cell-based, Mus musculus
HL-60 [6] = assay: In vitro inhibitory activity against HL-60 human promyelocytic leukemia cells; b = inactive until a maximum tested concentration of […]; assay type: functional, cell-based
L1210 [7] = assay: In vitro inhibitory activity against L1210 murine lymphocytic leukemia cells; b = inactive until a maximum tested concentration of […]; assay type: functional, cell-based, Mus musculus
P388 [8] = assay: In vitro inhibitory activity against P388 murine lymphocytic leukemia cells; b = inactive until a maximum tested concentration of 2.5(10e-4) M
HL-60 [9] = assay: In vitro inhibitory activity against HL-60 human promyelocytic leukemia cells; assay type: functional, cell-based
L1210 [10] = assay: In vitro inhibitory activity against L1210 murine lymphocytic leukemia cells; assay type: functional, cell-based; conditions: Mus musculus
P388 [11] = assay: In vitro inhibitory activity against P388 murine lymphocytic leukemia cells; assay type: functional, cell-based; conditions: Mus musculus

Row | SMILES | IC50 (B16 [1]) | IC50 (HL-60 [2]) | IC50 (L1210 [3]) | IC50 (P388 [4]) | IC50 (B16 [5]) | IC50 (HL-60 [6]) | IC50 (L1210 [7]) | IC50 (P388 [8]) | IC50 (HL-60 [9]) | IC50 (L1210 [10]) | IC50 (P388 [11])
1 | NC(=O)c1coc([C@@H]2O[C@H](CO)[C@@H](O)[C@H]2O)n1 | 3020 µM | Inactive until max test conc 4x10^-3M | Inactive until max test conc 4x10^-3M | Inactive until max test conc 4x10^-3M |  |  |  |  |  |  | 
2 | NC(=O)c1nc(-c2ccc(CO)o2)oc1N |  |  |  |  | Inactive until max test conc 2.5x10^-4M | Inactive until max test conc 2.5x10^-4M | Inactive until max test conc 2.5x10^-4M | Inactive until max test conc 2.5x10^-4M |  |  | 
3 | NC(=O)c1coc(-c2ccc(CO)o2)n1 |  |  |  |  | Inactive until max test conc 2.5x10^-4M | Inactive until max test conc 2.5x10^-4M | Inactive until max test conc 2.5x10^-4M | Inactive until max test conc 2.5x10^-4M |  |  | 
4 | NC(=O)c1csc([C@@H]2O[C@H](CO)[C@@H](O)[C@H]2O)n1 [TIAZOFURIN] | 16.2 µM |  |  |  |  |  |  |  | 6.1 µM | 6.2 µM | 16.7 µM
